Tests used:
Test in all cases: In vitro cytotoxicity assay (MTT)
MDA-MB-453 = type: cell-based, human; settings: 6 days incubation
Method: (§1) In vitro cytotoxicity of compounds of the disclosure was assessed on several cancerous human cell lines. Cells were plated in 96-well plates at an appropriate density depending on the cell line (between 1000 and 10 000 cells/well in 100µL of appropriate culture media) and incubated at 37°C for 24 hours. Serial dilutions of the tested compound previously dissolved in culture media (50µL) were added, and incubation was carried at 37°C out for 6 days. MTT (5mg/mL in PBS, 20µL, Sigma-Aldrich) was added into the wells, and incubation was continued for 1 to 4 hours at 37°C. Culture media was then carefully removed, and well content was homogeneously dissolved with acidified isopropanol. Absorbance values were measured on a microplate reader using a wavelength of 570 nm (with a reference wavelength of 690 nm). The IC50 concentration values compared to untreated control cells were determined using inhibition dose response curve fitting (GraphPad Prism 9). Exatecan mesylate (cat#HY-13631A) and CR8 (CAS# 294646-77-8; cat#HY-18340) were purchased from MedChemExpress (China).

BT-474 = type: cell-based, human; settings: BT-474, 6 days incubation, MTT
Method: as §1

MDA-MB-231 = type: cell-based, human; settings: 6 days incubation
Method: as §1

SKBR-3 = type: cell-based, human; settings: 6 days incubation
Method: as §1

NCI-N87 = type: cell-based, human; settings: 6 days incubation
Method: as §1

JIMT-1 = type: cell-based, human; settings: 6 days incubation
Method: as §1

HT-29 = type: cell-based; settings: Homo sapiens, 144 h, 6 days incubation
Method: as §1

MCF-7 = type: cell-based; settings: Homo sapiens, MCF7, 144 h, 6 days incubation
Method: as §1

BXPC3 = type: cell-based; settings: Homo sapiens, BXPC-3, 144 h, 6 days incubation
Method: as §1

[1] = Homo sapiens, MDA-MB-453, 144 h
[2] = Homo sapiens, MDA-MB-231, 144 h

SMILES | IC50 (MDA-MB-453; [1]) | IC50 (BT-474; Homo sapiens, BT-474, 144 h) | IC50 (MDA-MB-231; [2]) | IC50 (SKBR-3; Homo sapiens, SK-BR-3, 144 h) | IC50 (NCI-N87; Homo sapiens, NCI-N87, 144 h) | IC50 (JIMT-1; Homo sapiens, 144 h) | IC50 (HT-29) | IC50 (MCF-7) | IC50 (BXPC3) | IC50 (MDA-MB-453) | IC50 (BT-474) | IC50 (MDA-MB-231) | IC50 (SKBR-3) | IC50 (NCI-N87) | IC50 (JIMT-1)
N[C@H]1CCCC[C@H]1Nc1nc(NCc2ccc(-c3ccccn3)cc2)n2ncc(Br)c2n1 [Compound 2672] | 0.76 nM | 2.12 nM | 0.46 nM | 0.24 nM | 0.55 nM | – | – | – | – | – | – | – | – | – | –
N[C@H]1CC[C@H](Nc2nc(NCc3ccc(-c4ccccn4)cc3)n3ncc(I)c3n2)CC1 [Compound 2590] | 1.76 nM | 1.33 nM | 0.74 nM | 2.55 nM | 2.42 nM | 0.29 nM | – | – | – | – | – | – | – | – | –
Brc1cnn2c(NCc3ccc(-c4ccccn4)cc3)nc(N3CCC(N4CCNCC4)CC3)nc12 [Compound 2622] | 21.1 nM | 13.5 nM | 12.7 nM | 2.24 nM | 3 nM | 4.84 nM | 8.25 nM | > 100 nM | 36.1 nM | – | – | – | – | – | –
Brc1cnn2c(NCc3ccc(-c4ccccn4)cc3)nc(N3CCNCC3)nc12 [Compound 2601] | 1.92 nM | 1.86 nM | 0.86 nM | 3.61 nM | 2.7 nM | 0.45 nM | 0.13 nM | 15.4 nM | 1.72 nM | – | – | – | – | – | –
O[C@H]1CN[C@H](CNc2nc(NCc3ccc(-c4ccccn4)cc3)n3ncc(Br)c3n2)C1 [Compound 2538] | 8.12 nM | 6.54 nM | 8.75 nM | 39.1 nM | 21.6 nM | 5.13 nM | – | – | – | – | – | – | – | – | –
Nc1ccc(Nc2nc(NCc3ccc(-c4ccccn4)cc3)n3ncc(Br)c3n2)cc1 [Compound 2584] | 12.3 nM | 9.72 nM | 7.17 nM | 25.9 nM | 9.44 nM | 7.61 nM | – | – | – | – | – | – | – | – | –
N#Cc1cnn2c(NCc3ccc(-c4ccccn4)cc3)nc(N[C@H]3CC[C@H](N)CC3)nc12 [Compound 2478] | – | – | – | – | – | – | – | – | – | 1.34 nM | 1.72 nM | 1.64 nM | 17.6 nM | 6.88 nM | 1.18 nM
N[C@H]1CC[C@H](Nc2nc(NCc3ccc(-c4ccccn4)cc3)n3ncc(Cl)c3n2)CC1 [Compound 2629] | 0.77 nM | 1.75 nM | 0.66 nM | 0.27 nM | 0.94 nM | 0.11 nM | 0.36 nM | 3.91 nM | 1.17 nM | – | – | – | – | – | –
N[C@H]1CC[C@H](Nc2nc(NCc3ccc(-c4ccccn4)cc3)n3ncc(Br)c3n2)C1 [Compound 2669] | 0.59 nM | 1.75 nM | 0.44 nM | 0.67 nM | 0.39 nM | – | – | – | – | – | – | – | – | – | –
CNCCNc1nc(NCc2ccc(-c3ccccn3)cc2)n2ncc(Br)c2n1 [Compound 2586] | 2.47 nM | 1.73 nM | 1.44 nM | 6.59 nM | 3.14 nM | 1.13 nM | 0.45 nM | 33.9 nM | 2.44 nM | – | – | – | – | – | –
Brc1cnn2c(NCc3ccc(-c4ccccn4)cc3)nc(N[C@H]3CCNC3)nc12 [Compound 2657] | – | – | – | – | – | – | – | – | – | 0.77 nM | 1.71 nM | 0.56 nM | 0.13 nM | 0.43 nM | –
Brc1cnn2c(Nc3ccc(CN4CCOCC4)cc3)nc(NC3CCNCC3)nc12 [Compound 2554] | – | – | – | – | – | – | – | – | – | > 100 nM | > 100 nM | > 100 nM | > 100 nM | > 100 nM | > 100 nM
NCCCNc1nc(NCc2ccc(-c3ccccn3)cc2)n2ncc(Br)c2n1 [Compound 2658] | 7.84 nM | 4.57 nM | 1.98 nM | 0.77 nM | 6.43 nM | – | – | – | – | – | – | – | – | – | –
N[C@H]1CC[C@H](CNc2nc(NCc3ccc(-c4ccccn4)cc3)n3ncc(Br)c3n2)CC1 [Compound 2635] | 17.9 nM | 23.1 nM | 12.9 nM | 0.83 nM | 15.9 nM | 3.52 nM | 8.93 nM | > 100 nM | 39.7 nM | – | – | – | – | – | –
NCCNc1nc(NCc2ccc(-c3ccccn3)cc2)n2ncc(Br)c2n1 [Compound 2638] | 0.88 nM | 0.78 nM | 0.3 nM | 0.82 nM | 0.42 nM | – | – | – | – | – | – | – | – | – | –
Brc1cnn2c(NCc3ccc(-c4ccccn4)cc3)nc(NCC3CCNCC3)nc12 [Compound 2569] | 12.8 nM | 15.2 nM | 11.2 nM | 62.6 nM | 19.7 nM | 6.7 nM | – | – | – | – | – | – | – | – | –
Brc1cnn2c(NCc3ccc(-c4ccccn4)cc3)nc(N[C@@H]3CCCNC3)nc12 [Compound 2660, 8-bromo-N2-[(3R)-piperidin-3-yl]-N4-{[4-(pyridin-2-yl)phenyl]methyl}pyrazolo[1,5-a][1 ,3,5]triazine-2,4-diamine] | – | – | – | – | – | – | – | – | – | 0.68 nM | 1.25 nM | 0.43 nM | 0.11 nM | 0.49 nM | –
N[C@H]1CC[C@H](Nc2nc(Nc3ccc(CN4CCOCC4)cc3)n3ncc(Br)c3n2)CC1 [Compound 2533] | > 100 nM | > 100 nM | > 100 nM | > 100 nM | > 100 nM | > 100 nM | – | – | – | – | – | – | – | – | –
Brc1cnn2c(NCc3ccc(-c4ccccn4)cc3)nc(N[C@@H]3CCNC3)nc12 [Compound 2656] | 1.13 nM | 2.52 nM | 0.65 nM | 0.17 nM | 1.42 nM | – | – | – | – | – | – | – | – | – | –
NC1CCN(c2nc(NCc3ccc(-c4ccccn4)cc3)n3ncc(Br)c3n2)CC1 [Compound 2559] | 1.52 nM | 2.63 nM | 1.35 nM | 3.73 nM | 1.32 nM | 0.41 nM | 0.21 nM | 12.8 nM | 1.63 nM | – | – | – | – | – | –
Brc1cnn2c(NCc3ccc(-c4ccccn4)cc3)nc(NC3CCCNC3)nc12 (racemic) [Compound 2606] | 0.64 nM | 0.92 nM | 0.46 nM | 1.23 nM | 0.77 nM | 0.88 nM | 0.13 nM | 6.88 nM | 1.16 nM | – | – | – | – | – | –
Brc1cnn2c(NCc3ccc(-c4ccccn4)cc3)nc(N[C@@H]3CCCNC3)nc12 [Compound 2659, 8-bromo-N2-[(3R)-piperidin-3-yl]-N4-{[4-(pyridin-2-yl)phenyl]methyl}pyrazolo[1 ,5-a][1 ,3,5]triazine-2,4-diamine] | 0.4 nM | 0.72 nM | 0.26 nM | – | 0.34 nM | – | – | – | – | – | – | – | 0.72 nM | – | –

From patent EP4512427A1, “ANTIBODY-DRUG CONJUGATES BASED ON MOLECULAR GLUE DEGRADERS AND USES THEREOF” (Mablink Bioscience, priority 2023, dated 2025)
